Experimental data: PMC8313326, “Phytochemical Analysis and Evaluation of Biological Activity of Lawsonia inermis Seeds Related to Alzheimer's Disease” (Evidence-based Complementary and Alternative Medicine : eCAM, 2021)
Read-outs that look alike come from different tables or passages of the source.

Experiments:
[1] = Antioxidant activity by DPPH test; conditions: 30 min, room temperature, dark, 517 nm
Method: Several concentrations of the test fraction in MeOH were prepared. Aliquots of different concentrations of the fraction (1 mL) were added to the DPPH methanolic solution (1.0 mL, 0.1 mM), and the mixtures were shaken vigorously and left for 30 min at room temperature in the dark.
In the same procedure, butylated hydroxyanisole (BHA) was used as the positive control. The DPPH radical scavenging activity of the fractions was expressed as IC50 (μg/mL), which is obtained from linear regression plot between concentrations of the test fractions and percent inhibitions.

[2] = molecular target: T1, butyrylcholinesterase (BChE, E.C. 3.1.1.8) (Equus caballus, UniProt P81908); test: biochemical
T1 construct: butyrylcholinesterase (BChE, E.C. 3.1.1.8, from equine serum); purchased Sigma-Aldrich; host or cells: equine serum
Excerpt: (§1) Acetylcholinesterase (AChE, E.C. 3.1.1.7, Type V-S, lyophilized powder, from electric eel, 1000 units), butyrylcholinesterase (BChE, E.C. 3.1.1.8, from equine serum), acetylthiocholine iodide (ATCI), and 5,5-dithiobis-2-nitrobenzoic acid (DTNB) were purchased from Sigma-Aldrich. Potassium dihydrogen phosphate, dipotassium hydrogen phosphate, potassium hydroxide, and sodium hydrogen carbonate were obtained from Fluka. Solvents for the extraction and column chromatography (CC) were of technical grade and redistilled before use. Deuterated solvents (100 atom % D) were obtained from Sigma-Aldrich.
(§2) In vitro anti-ChEI activity was performed against acetylcholinesterase (AChE, E.C. 3.1.1.7, Type V-S, lyophilized powder, from electric eel, 1000 units) and butyrylcholinesterase (BChE, E.C. 3.1.1.8, from equine serum) using the modified Ellman's method. […] Each well consisted of 50 μL potassium phosphate buffer (KH2PO4/K2HPO4, 0.1 M, pH 8), 25 μL prepared sample as described above, and AChE enzyme (25 μL) with a final concentration of 0.22 units/mL in the buffer. They were preincubated for 15 min at room temperature, and then, 125 μL DTNB (3 mM in buffer) was added to the mixture. […] In parallel, a blank containing all components without enzyme was used in order to account for the nonenzymatic reaction. […] The IC50 values were determined graphically from log concentration vs. % of inhibition curves. All experiments were performed in triplicate. BChE inhibition assay was performed in the same method.

[3] = molecular target: T2, acetylcholinesterase (AChE, E.C. 3.1.1.7, Type V-S) (Electrophorus electricus, UniProt O42275); test: biochemical
T2 construct: Type V-S, lyophilized powder, from electric eel; purchased Sigma-Aldrich; host or cells: electric eel
Excerpt: as §1, §2

acetylcholinesterase = conditions: cited from earlier work
BChE = tested on: BChE; set-up: method as in PMID 24354178; conditions: cited from earlier work

T1 sequence (P81908 whole entry): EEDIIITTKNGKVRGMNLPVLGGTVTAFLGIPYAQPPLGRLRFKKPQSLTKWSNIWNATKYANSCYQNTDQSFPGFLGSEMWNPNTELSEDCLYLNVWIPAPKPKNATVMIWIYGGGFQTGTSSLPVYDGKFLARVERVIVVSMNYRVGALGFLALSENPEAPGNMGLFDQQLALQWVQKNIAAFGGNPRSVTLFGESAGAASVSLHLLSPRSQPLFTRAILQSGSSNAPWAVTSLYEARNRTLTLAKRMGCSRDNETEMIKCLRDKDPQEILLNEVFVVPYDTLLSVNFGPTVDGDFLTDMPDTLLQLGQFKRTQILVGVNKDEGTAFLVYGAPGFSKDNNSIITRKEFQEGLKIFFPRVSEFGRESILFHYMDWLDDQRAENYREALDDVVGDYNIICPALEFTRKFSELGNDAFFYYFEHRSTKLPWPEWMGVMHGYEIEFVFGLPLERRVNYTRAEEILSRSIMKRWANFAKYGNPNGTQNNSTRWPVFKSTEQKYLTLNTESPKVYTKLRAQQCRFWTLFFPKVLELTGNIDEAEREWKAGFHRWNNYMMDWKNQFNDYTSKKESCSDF
T2 sequence (O42275 24-633): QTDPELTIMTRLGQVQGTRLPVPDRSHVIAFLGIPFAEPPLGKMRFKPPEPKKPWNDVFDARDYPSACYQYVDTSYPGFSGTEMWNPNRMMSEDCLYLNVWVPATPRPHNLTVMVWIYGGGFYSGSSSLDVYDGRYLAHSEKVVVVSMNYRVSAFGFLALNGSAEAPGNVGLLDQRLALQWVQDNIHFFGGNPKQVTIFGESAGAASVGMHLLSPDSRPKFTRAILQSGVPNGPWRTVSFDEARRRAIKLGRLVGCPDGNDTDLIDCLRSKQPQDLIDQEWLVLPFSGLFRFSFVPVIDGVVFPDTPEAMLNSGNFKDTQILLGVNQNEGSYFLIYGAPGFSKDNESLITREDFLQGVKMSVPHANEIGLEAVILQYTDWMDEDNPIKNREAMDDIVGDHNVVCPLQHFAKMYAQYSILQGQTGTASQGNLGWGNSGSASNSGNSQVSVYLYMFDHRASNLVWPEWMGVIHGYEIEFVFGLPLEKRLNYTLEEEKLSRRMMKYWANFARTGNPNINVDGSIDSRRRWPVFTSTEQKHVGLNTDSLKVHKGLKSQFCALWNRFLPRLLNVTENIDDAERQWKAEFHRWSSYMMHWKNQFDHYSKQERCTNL

Compound: COc1ccc(O)c(C(C)(C)C)c1 [BHA, butylated hydroxyanisole]
- DPPH free radical scavenging IC50 [1]: 3.79 ± 0.37 µg/mL

Compound: CC[C@H](CC[C@@H](C)[C@H]1CC[C@H]2[C@@H]3CC=C4C[C@@H](O)CC[C@]4(C)[C@H]3CC[C@]12C)C(C)C [compound 1, β-Sitosterol]
- IC50 [2]: > 100 µM
- IC50 [3]: > 100 µM

Compound: CC(=O)O[C@H]1CC[C@@]2(C)C(CC[C@]3(C)C2CC=C2C4CC(C)(C)CC[C@]4(C(=O)O)CC[C@]23C)C1(C)C (stereo partly drawn) [compound 2, 3-O-β-Acetyloleanolic acid]
- IC50 [2]: 77.13 ± 0.01 µM
- IC50 [3]: > 100 µM

Compound: CC1(C)CC[C@]2(C(=O)O)CC[C@]3(C)C(=CCC4[C@@]5(C)CC[C@H](OC(=O)/C=C/c6ccc(O)cc6)C(C)(C)C5CC[C@]43C)C2C1 (stereo partly drawn) [compound 3, 3-O-(Z)-Coumaroyl oleanolic acid]
- IC50 ([2]; isolated compounds, mean ± SD, three independent experiments, read-out: BChE IC50): > 100 µM
- IC50 ([3]; isolated compounds, mean ± SD, three independent experiments, read-out: AChE IC50): > 100 µM

Compound: C=C(C)[C@@H]1CC[C@]2(C(=O)O)CC[C@]3(C)[C@H](CC[C@@H]4[C@@]5(C)CC[C@H](O)C(C)(C)[C@@H]5CC[C@]43C)[C@@H]12 [compound 4, Betulinic acid]
- IC50 [2]: > 100 µM
- IC50 [3]: > 100 µM

Compound: CC1(C)CC[C@]2(C(=O)O)CC[C@]3(C)C(=CC[C@@H]4[C@@]5(C)CC[C@H](O)C(C)(C)[C@@H]5CC[C@]43C)[C@@H]2C1 [compound 5, Oleanolic acid]
- IC50 ([2]; BChE IC50, isolated compounds, mean ± SD, three independent experiments): 72.2 ± 0.42 µM

Compound: COc1ccc2c3c1O[C@H]1C[C@@H](O)C=C[C@@]31CCN(C)C2 [galantamine]
- inhibitory activity against acetylcholinesterase (acetylcholinesterase): significant inhibitory activity

Compound: COc1ccc(C(C)=O)c(O)c1 [paeonol]
- BChE inhibitory activity (BChE): selective BChE inhibitory activity

Compound: CNC(=O)Oc1ccc2c(c1)[C@]1(C)CCN(C)[C@@H]1N2C [physostigmine]
- inhibitory activity against acetylcholinesterase (acetylcholinesterase): significant inhibitory activity

Compound: CN1CC[C@@]23C=C[C@H](O)C[C@@H]2Oc2c(O)ccc(c23)C1 [sanguinine]
- inhibitory activity against acetylcholinesterase (acetylcholinesterase): significant inhibitory activity

Compound: hydroperoxy-24-vinylcholesterol
- BChE inhibitory activity (BChE): selective BChE inhibitory activity
